Measurements as given in patent publication US8097615B2, “Neurofibrillary labels” (Wista Laboratories Ltd., priority 2001, dated 2012).

Experiments:
tau-tau binding = target: T1, tau-tau binding (Homo sapiens, UniProt P10636); assay: Solid-phase tau-tau binding assay (dGA solid phase, dGAE liquid phase), tau Preparation 2; type: biochemical; conditions: Preparation 2
T1 construct: a truncated tau protein corresponding to the core fragment and terminating at Ala390-dGA; dGAE which terminates at Glu-391; made in house; host or cells: E. coli BL21 (DE3), pRK172; DE52 flow-through, P11 phosphocellulose, PEG concentration, no heat step (Preparation 2)
T1 sequence (P10636 614-708 limits assumed): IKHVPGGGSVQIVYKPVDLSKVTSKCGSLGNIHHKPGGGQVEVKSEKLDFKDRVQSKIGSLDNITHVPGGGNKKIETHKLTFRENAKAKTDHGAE
Protocol: Preparation 2 differs from Preparation 1 above in the following respects: (1) The concentration of cells at the sonication stage is increased by 5-fold. (2) A batchwise adsorption of non-tau proteins to DE52 is included. (3) The proteins are not subjected to heat treatment. (4) The final step involves concentration using polyethylene glycol.
Escherichia coli is grown in 2×TY medium (Oxoid) supplemented with ampicillin (50 micrograms per ml) to late-logarithmic phase. Cells from 5 liters of culture are harvested by centrifugation and the cell pellets frozen rapidly over liquid nitrogen. The pellets are taken up with 50 mM PIPES (pH 6.8) containing 1 mM EDTA, 1 mM dithiothreitol and 1 mM phenylmethylsulphonylfluoride (PMSF) and bacteria lysed by sonication (2×3 min) at 4 C. The mixture is centrifuged at 10,000 rpm for 20 min. The supernatant is rotated with 1 gram of Whatman DE52 for 3 hr at 4 C. The mixture is separated on a column and the flow-through material that fails to bind to DE52 is incubated for 3 hr at 4 C, with rotation, with 0.4 g of Whatman P11 (freshly regenerated according to manufacturer's recommendations). The column is washed with column buffer (50 mM PIPES, pH 6.8 containing 1 mM EGTA, 5 mM EDTA, 0.2 mM MgCl2, 5 mM β-mercaptoethanol and 1 mM PMSF). Tau protein is eluted stepwise with a 0.1 to 1 M gradient of KCl in column buffer. Fractions containing tau (determined by immunoassay) are pooled and dialysed against 80 mM PIPES (pH6.8) containing 1 mM EGTA, 1 mM MgCl2 and 5 mM β-mercatoethanol, using dialysis tubing with a molecular weight cut-off of 1,000. The dialysate is concentrated by applying polyethylene glycol 8000 to the outside of the sac for 2-3 hr. The final concentration of tau ranged from 3 to 10 mg per ml.
When the proteins dGA and dGAE were prepared as indicated above (“Preparation 2”), the properties of the tau-tau binding assay were altered relative to the properties obtained using the preparative method described in WO96/30766 (“Preparation 1”).
The assay is performed using 96 well PVC plates (Falcon Cat. No. 353912 are used), and the following steps:
1. 50 μl dGA (˜10 μg/ml) in carbonate buffer, incubate 1 h at 37° C.
(Carbonate buffer: 50 mM carbonate bicarbonate, pH 9.6 (Na2CO3 1.59 g/l, NaHCO3 2.93 g/l))
2. Wash plate in 0.05% Tween-20.
3. 200 μl PBS+2% Marvel, incubate 1 h at 37° C.
4. Rinse plate 2× in deionised water, then wash in 0.05% Tween-20.
5. 50 μl dGAE (˜10 μg/ml) plus drug in PBS+1% fish skin gelatin+0.05% Tween-20, incubate 1 h at 37° C.
6. Wash plate in 0.05% Tween-20.
7. 50 μl antibody 423 (1:10 dilution in PBS+2% Marvel), incubate 1 h at 37° C.
8. Rinse plate 2× in deionised water, then wash in 0.05% Tween-20.
9. 50 μl HRP-anti-mouse (1:1000 dilution in PBS+0.05% Tween-20), incubate 1 h at 37° C.
10. Wash plate in 0.05% Tween-20, then rinse 1× with deionised water.
11. 50 μl substrate solution, read immediately initial rate over 2 min in plate reader at OD650.
(Substrate solution: 50 mM sodium acetate, pH 5.0+TMB (1 ml/100 ml of a 10 mg/ml solution in DMSO)+H2O2 (10 μl/100 ml)).

neurofibrillary tangles = assay: Fluorescence labelling of tangles (sections, ifI tangle suspensions); type: binding, human
Protocol: In ifI suspensions such as this, tangles can be seen by blue fluorescence which is […] from that associated with binding of contaminants in the preparation. […] (a) Chemical labelling with the biotinylated benzothiazole analogue shown as 4b in FIG. 4. PHFs were deposited on a carbon-coated grid after Pronase digestion, and incubated briefly with compound 4b, and then incubated with an anti-biotin antibody preparation that had been conjugated with colloidal gold. […] (b) mAb 423 immunolabelling of isolated PHFs after Pronase digestion., followed by incubation with a gold-conjugated goat anti-mouse second antibody as described in Novak et al. 1993 (Novak M, Kabat J, Wischik C M (1993) “Molecular characterisation of the minimal protease-resistant tau unit of the Alzheimers' disease paired helical filament”, EMBO J. 12: 365-370). As shown in this paper, mAb 423 labels PHFs derived from intracellular tangles (which preserve N-terminal tau immunoreactivity in the fuzzy outer coat) poorly, but Pronase digested PHFs strongly.
Serial 16 μm sections are cut from the hippocampus of a case dying with clinically and neuropathologically confirmed AD. […]
A Leitz fluorescence microscope fitted with a photo-multiplyer tube (Model MPV-2) was used to quantitate fluorescence emission. […]

tangle fragments = assay: Competitive binding assay: displacement of primulin fluorescence from tangle fragments (ifI); parameters: species or system human; conditions: for competition with / displacement of other ligands at tangles: fluorescence end point
Protocol: IfI material was homogenised in a 0.2 ml glass homogeniser in PBS. To the suspension, test compounds were added to final concentrations ranging from 0.1% to 0.00001%. […] The suspensions were transferred to a glass slide, and examined by fluorescence microscopy across a range of fluorescence filter blocks, covering excitation and emission wavelengths between 380 nm and 570 nm. The end point sought in these observations was displacement of typical primulin fluorescence from tangle fragments.

- inhibition of tau-tau binding (tau-tau binding): no inhibitory activity
- activity as ligand (tangle fragments): active ligands
- competition with / displacement of other ligands at tangles (tangle fragments): displace this from tangles
- competition with / displacement of other ligands at tangles (tangle fragments; listed as compound 1a): displace compound 1b at tangles
SMILES: Cc1ccc2sc(-c3ccc4sc(-c5ccc(N)cc5)nc4c3)nc2c1S(=O)(=O)[O-].[Na+] [primulin]
- labelling of tangles (neurofibrillary tangles): label tangles
